In PubChem BioAssay (NCI):
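GI50: concentration for 50% inhibition of growth. Definition used: TGI = concentration required for complete inhibition of growth.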

Tests used:
Assay in all cases: inhibition of tumour cell growth, NCI panel, 384-well format
UACC-257 melanoma = test system: UACC-257 melanoma
HT29 colon = test system: HT29 colon
HOP-92 NSCLC = test system: HOP-92 NSCLC
SNB-19 CNS = test system: SNB-19 CNS
UACC-62 melanoma = test system: UACC-62 melanoma
MDA-MB-468 breast = test system: MDA-MB-468 breast
MCF7 breast = test system: MCF7 breast
OVCAR-5 ovarian = test system: OVCAR-5 ovarian
SK-OV-3 ovarian = test system: SK-OV-3 ovarian
NCI-H522 lung = test system: NCI-H522 lung
SN12C renal = test system: SN12C renal
SNB-75 CNS = test system: SNB-75 CNS
NCI-H460 NSCLC = test system: NCI-H460 NSCLC
NCI-H322M lung = test system: NCI-H322M lung
SF-539 CNS = test system: SF-539 CNS
CAKI-1 renal = test system: CAKI-1 renal
RPMI-8226 leukemia = test system: RPMI-8226 leukemia
HCT-15 colon = test system: HCT-15 colon
HCC-2998 colon = test system: HCC-2998 colon
ACHN renal = test system: ACHN renal
SF-268 CNS = test system: SF-268 CNS
NCI-H226 lung = test system: NCI-H226 lung
KM12 colon = test system: KM12 colon
TK-10 renal = test system: TK-10 renal
NCI-H23 lung = test system: NCI-H23 lung
SR leukemia = test system: SR leukemia
OVCAR-4 ovarian = test system: OVCAR-4 ovarian
SK-MEL-28 melanoma = test system: SK-MEL-28 melanoma
HOP-62 NSCLC = test system: HOP-62 NSCLC
CCRF-CEM leukemia = test system: CCRF-CEM leukemia
SF-295 CNS = test system: SF-295 CNS
PC-3 prostate = test system: PC-3 prostate
HCT-116 colon = test system: HCT-116 colon
MDA-MB-231 breast = test system: MDA-MB-231 breast
U251 glioblastoma = test system: U251 glioblastoma
IGROV1 ovarian = test system: IGROV1 ovarian
MDA-MB-435 melanoma = test system: MDA-MB-435 melanoma
M14 melanoma = test system: M14 melanoma
K-562 leukemia = test system: K-562 leukemia
A549 NSCLC = test system: A549 NSCLC
HL-60(TB) leukemia = test system: HL-60(TB) leukemia
SW-620 colon = test system: SW-620 colon
SK-MEL-5 melanoma = test system: SK-MEL-5 melanoma
OVCAR-8 ovarian = test system: OVCAR-8 ovarian
NCI/ADR-RES ovarian = test system: NCI/ADR-RES ovarian
COLO 205 colon = test system: COLO 205 colon
786-0 renal = test system: 786-0 renal
HS 578T breast = test system: HS 578T breast
DU-145 prostate = test system: DU-145 prostate
T-47D breast = test system: T-47D breast
BT-549 breast = test system: BT-549 breast
A498 renal = test system: A498 renal
MOLT-4 leukemia = test system: MOLT-4 leukemia
EKVX NSCLC = test system: EKVX NSCLC
SK-MEL-2 melanoma = test system: SK-MEL-2 melanoma
RXF 393 renal = test system: RXF 393 renal
OVCAR-3 ovarian = test system: OVCAR-3 ovarian
MALME-3M melanoma = test system: MALME-3M melanoma

O=C1CC(c2c[nH]c3ccc(F)cc23)C(=O)N1 (stereo unspecified)
GI50 (UACC-257 melanoma): > 100 µM
TGI (UACC-257 melanoma): > 100 µM
GI50 (HT29 colon): > 100 µM
TGI (HT29 colon): > 100 µM
GI50 (HOP-92 NSCLC): > 100 µM
TGI (HOP-92 NSCLC): > 100 µM
GI50 (SNB-19 CNS): > 100 µM
TGI (SNB-19 CNS): > 100 µM
GI50 (UACC-62 melanoma): > 100 µM
TGI (UACC-62 melanoma): > 100 µM
GI50 (MDA-MB-468 breast): > 100 µM
TGI (MDA-MB-468 breast): > 100 µM
GI50 (MCF7 breast): > 100 µM
TGI (MCF7 breast): > 100 µM
GI50 (OVCAR-5 ovarian): > 100 µM
TGI (OVCAR-5 ovarian): > 100 µM
GI50 (SK-OV-3 ovarian): > 100 µM
TGI (SK-OV-3 ovarian): > 100 µM
GI50 (NCI-H522 lung): > 100 µM
TGI (NCI-H522 lung): > 100 µM
GI50 (SN12C renal): > 100 µM
TGI (SN12C renal): > 100 µM
GI50 (SNB-75 CNS): > 100 µM
TGI (SNB-75 CNS): > 100 µM
GI50 (NCI-H460 NSCLC): > 100 µM
TGI (NCI-H460 NSCLC): > 100 µM
GI50 (NCI-H322M lung): > 100 µM
TGI (NCI-H322M lung): > 100 µM
GI50 (SF-539 CNS): > 100 µM
TGI (SF-539 CNS): > 100 µM
GI50 (CAKI-1 renal): > 100 µM
TGI (CAKI-1 renal): > 100 µM
GI50 (RPMI-8226 leukemia): > 100 µM
TGI (RPMI-8226 leukemia): > 100 µM
GI50 (HCT-15 colon): > 100 µM
TGI (HCT-15 colon): > 100 µM
GI50 (HCC-2998 colon): > 100 µM
TGI (HCC-2998 colon): > 100 µM
GI50 (ACHN renal): > 100 µM
TGI (ACHN renal): > 100 µM
GI50 (SF-268 CNS): > 100 µM
TGI (SF-268 CNS): > 100 µM
GI50 (NCI-H226 lung): > 100 µM
TGI (NCI-H226 lung): > 100 µM
GI50 (KM12 colon): > 100 µM
TGI (KM12 colon): > 100 µM
GI50 (TK-10 renal): > 100 µM
TGI (TK-10 renal): > 100 µM
GI50 (NCI-H23 lung): > 100 µM
TGI (NCI-H23 lung): > 100 µM
GI50 (SR leukemia): > 100 µM
TGI (SR leukemia): > 100 µM
GI50 (OVCAR-4 ovarian): > 100 µM
TGI (OVCAR-4 ovarian): > 100 µM
GI50 (SK-MEL-28 melanoma): > 100 µM
TGI (SK-MEL-28 melanoma): > 100 µM
GI50 (HOP-62 NSCLC): > 100 µM
TGI (HOP-62 NSCLC): > 100 µM
GI50 (CCRF-CEM leukemia): > 100 µM
TGI (CCRF-CEM leukemia): > 100 µM
GI50 (SF-295 CNS): > 100 µM
TGI (SF-295 CNS): > 100 µM
GI50 (PC-3 prostate): > 100 µM
TGI (PC-3 prostate): > 100 µM
GI50 (HCT-116 colon): > 100 µM
TGI (HCT-116 colon): > 100 µM
GI50 (MDA-MB-231 breast): > 100 µM
TGI (MDA-MB-231 breast): > 100 µM
GI50 (U251 glioblastoma): > 100 µM
TGI (U251 glioblastoma): > 100 µM
GI50 (IGROV1 ovarian): > 100 µM
TGI (IGROV1 ovarian): > 100 µM
GI50 (MDA-MB-435 melanoma): > 100 µM
TGI (MDA-MB-435 melanoma): > 100 µM
GI50 (M14 melanoma): > 100 µM
TGI (M14 melanoma): > 100 µM
GI50 (K-562 leukemia): > 100 µM
TGI (K-562 leukemia): > 100 µM
GI50 (A549 NSCLC): > 100 µM
TGI (A549 NSCLC): > 100 µM
GI50 (HL-60(TB) leukemia): > 100 µM
TGI (HL-60(TB) leukemia): > 100 µM
GI50 (SW-620 colon): > 100 µM
TGI (SW-620 colon): > 100 µM
GI50 (SK-MEL-5 melanoma): > 100 µM
TGI (SK-MEL-5 melanoma): > 100 µM
GI50 (OVCAR-8 ovarian): > 100 µM
TGI (OVCAR-8 ovarian): > 100 µM
GI50 (NCI/ADR-RES ovarian): > 100 µM
TGI (NCI/ADR-RES ovarian): > 100 µM
GI50 (COLO 205 colon): > 100 µM
TGI (COLO 205 colon): > 100 µM
GI50 ([…]-0 renal): > 100 µM
TGI (786-0 renal): > 100 µM
GI50 (HS 578T breast): > 100 µM
TGI (HS 578T breast): > 100 µM
GI50 (DU-145 prostate): > 100 µM
TGI (DU-145 prostate): > 100 µM
GI50 (T-47D breast): > 100 µM
TGI (T-47D breast): > 100 µM
GI50 (BT-549 breast): > 100 µM
TGI (BT-549 breast): > 100 µM
GI50 (A498 renal): > 100 µM
TGI (A498 renal): > 100 µM
GI50 (MOLT-4 leukemia): > 100 µM
TGI (MOLT-4 leukemia): > 100 µM
GI50 (EKVX NSCLC): > 100 µM
TGI (EKVX NSCLC): > 100 µM
GI50 (SK-MEL-2 melanoma): > 100 µM
TGI (SK-MEL-2 melanoma): > 100 µM
GI50 (RXF 393 renal): > 100 µM
TGI (RXF 393 renal): > 100 µM
GI50 (OVCAR-3 ovarian): > 100 µM
TGI (OVCAR-3 ovarian): > 100 µM
GI50 (MALME-3M melanoma): > 100 µM
TGI (MALME-3M melanoma): > 100 µM
